What was measured:
[1] = system: CD8+ T cells; assay: In vitro immunogenicity: T-cell priming with artificial antigen presenting cells loaded with peptide/MHC complexes and anti-CD28 antibody, multimer readout; type: cell-based, human; conditions: for Wells positive [%]: HLA-A*02 restricted peptides, positive wells among evaluable
Description: In an aspect, the peptides are pre-screened for immunogenicity before being included in the warehouse. By way of example, and not limitation, the immunogenicity of the peptides included in the warehouse is determined by a method comprising in vitro T-cell priming through repeated stimulations of CD8+ T cells from healthy donors with artificial antigen presenting cells loaded with peptide/MHC complexes and anti-CD28 antibody.
In order to obtain information regarding the immunogenicity of the TUMAPs of the present invention, the inventors performed investigations using an in vitro T-cell priming assay based on repeated stimulations of CD8+ T cells with artificial antigen presenting cells (aAPCs) loaded with peptide/MHC complexes and anti-CD28 antibody.
In order to perform in vitro stimulations by artificial antigen presenting cells loaded with peptide-MHC complex (pMHC) and anti-CD28 antibody, the inventors first isolated CD8+ T cells from fresh HLA-A*02 leukapheresis products via positive selection using CD8 microbeads (Miltenyi Biotec, Bergisch-Gladbach, Germany) of healthy donors obtained from the University clinics Mannheim, Germany, after informed consent.
PBMCs and isolated CD8+ lymphocytes were incubated in T-cell medium (TCM) until use consisting of RPMI-Glutamax (Invitrogen, Karlsruhe, Germany) supplemented with 10% heat inactivated human AB serum (PAN-Biotech, Aidenbach, Germany), 100 U/ml Penicillin/100 μg/ml Streptomycin (Cambrex, Cologne, Germany), 1 mM sodium pyruvate (CC Pro, Oberdorla, Germany), 20 μg/ml Gentamycin (Cambrex). 2.5 ng/ml IL-7 (PromoCell, Heidelberg, Germany) and 10 U/ml IL-2 (Novartis Pharma, Nürnberg, Germany) were also added to the TCM at this step.
Generation of pMHC/anti-CD28 coated beads, T-cell stimulations and readout was performed in a highly defined in vitro system using four different pMHC molecules per stimulation condition and 8 different pMHC molecules per readout condition.
The purified co-stimulatory mouse IgG2a anti human CD28 Ab 9.3 (Jung et al., 1987) was chemically biotinylated using Sulfo-N-hydroxysuccinimidobiotin as recommended by the manufacturer (Perbio, Bonn, Germany). Beads used were 5.6 μm diameter streptavidin coated polystyrene particles (Bangs Laboratories, Illinois, USA).
pMHC used for positive and negative control stimulations were A*0201/MLA-001 (peptide […] (SEQ ID NO. 664) from modified Melan-A/MART-1) and A*0201/DDX5-001 ([…] from DDX5, SEQ ID NO. 665), respectively.
800.000 beads/200 μl were coated in 96-well plates in the presence of 4×12.5 ng different biotin-pMHC, washed and 600 ng biotin anti-CD28 were added subsequently in a volume of 200 μl. Stimulations were initiated in 96-well plates by co-incubating 1×10^6 CD8+ T cells with 2×10^5 washed coated beads in 200 μl TCM supplemented with 5 ng/ml IL-12 (PromoCell) for 3 days at 37° C. Half of the medium was then exchanged by fresh TCM supplemented with 80 U/ml IL-2 and incubating was continued for 4 days at 37° C. This stimulation cycle was performed for a total of three times. For the pMHC multimer readout using 8 different pMHC molecules per condition, a two-dimensional combinatorial coding approach was used as previously described (Andersen et al., 2012) with minor modifications encompassing coupling to 5 different fluorochromes. Finally, multimeric analyses were performed by staining the cells with Live/dead near IR dye (Invitrogen, Karlsruhe, Germany), CD8-FITC antibody clone SK1 (BD, Heidelberg, Germany) and fluorescent pMHC multimers. For analysis, a BD LSRII SORP cytometer equipped with appropriate lasers and filters was used. Peptide specific cells were calculated as percentage of total CD8+ cells. Evaluation of multimeric analysis was done using the FlowJo software (Tree Star, Oreg., USA). In vitro priming of specific multimer+CD8+ lymphocytes was detected by comparing to negative control stimulations. […]

[2] = target: HLA-A*02:01 (Homo sapiens, UniProt P04439, D140Y/D185E/D98H/E176V/E277Q/G131W/G231S/I119V/I121R/I166T/I218V/L300P/L318F/N151K/N90K/P208A/P217A/Q86G/Q94H/R138H/R169H/T345S); assay: MHC binding assay (UV-ligand exchange, ELISA, peptide exchange yield); conditions: binding of HLA-class I restricted peptides to HLA-A*02:01
In short: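 Exchange yield was quantified as stabilized β2m-containing complex: monomers diluted 100-fold bound to streptavidin-coated wells, probed with HRP-conjugated anti-β2m, read at 450 nm after TMB. Complexes had been generated by UV cleavage of a photolabile ligand and replacement with the candidate peptide.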

Peptide exchange (MHC class I binding score, peptide exchange yield) [2] | Substance | Wells positive [%] [1] | in vitro immunogenicity, donors ([1]; percentage of positive donors) | in vitro immunogenicity, wells ([1]; percentage of positive wells)
″+++″ (≥50% = +++) | 79 (SLFIGEKAVLL; listed as Homo sapiens) [compound 79] | ″+″ (<20% = +) | – | –
″+++″ (≥50% = +++) | 11 (KIFEMLEGV; listed as Homo sapiens) [compound 11] | ″+″ (<20% = +) | – | –
″++++″ (≥75% = ++++) | 460 (AMLEKNYKL; listed as Homo sapiens) [compound 460] | ″+″ (<20% = +) | – | –
″+++″ (≥50% = +++) | 48 (ALAELYEDEV; listed as Homo sapiens) [compound 48] | ″+″ (<20% = +) | – | –
″+++″ (≥50% = +++) | 2 (SLLEADPFL; listed as Homo sapiens) [compound 2] | ″+″ (<20% = +) | – | –
″++++″ (≥75% = ++++) | 3 (SLASKLTTL; listed as Homo sapiens) [compound 3] | ″+″ (<20% = +) | – | –
″+++″ (≥50% = +++) | 283 (ALYIGDGYVIHLA; listed as Homo sapiens) [compound 283] | – | +++ (50%-69% = +++) | + (<20% = +)

Reference: US10227388B2, “Peptides and combination of peptides for use in immunotherapy against non-small cell lung cancer and other cancers” (immatics biotechnologies GmbH, priority 2015, dated 2019)
